Test results published in patent publication US8883827B2, “Azole derivatives as WTN pathway inhibitors” (Oslo University Hospital HF, priority 2009, dated 2014).
Values joined by “and” are separate entries in the source; they are usually repeats but may differ in a detail not shown here. Identical values can stand only once. Like-named read-outs stand apart in the source and are kept apart here.

Experiments:
[1] = biological target: T1, IGF-1R(h) (Homo sapiens, UniProt P08069); test: Kinase screen; type: biochemical; conditions: 0.1% DMSO control = 100%
T1 construct: purchased Millipore (KinaseProfiler service)

[2] = Compound concentration in plasma and tumors of xenograft mice; type: in vivo; conditions: C.B-Igh-1b/IcrTac-Prkdc scid (CB17/SCID), mouse, intraperitoneal, 24 h after last injection, day 29
Description: Daily injections (200 μl, i.p.) followed (two day injection intermissions after every fifth injection day) until experiment end (29 days). At the termination day, 24 hours after the last injection, blood was collected after cardiac puncture and the tumors were removed and weighed. The compound concentration in plasma and tumors was determined using an on-line and off-line Solid Phase Extraction-Capillary Liquid Chromatography (SPE-CapLC) instrumentation coupled to a Time of Flight (TOF) mass spectrometer, as previously described (Wilson, S. R. et al., J. Sep. Sci. 28: 1751-1758, 2005). A Zorbax SB C18 5 μm 150×0.3 mm column (Agilent, […], Calif., USA) was used for separation, and a Knauer K-2600 UV detector was used as a complimentary detector.

[3] = tested on: panel of phosphatases and kinases; test: KinaseProfiler phosphatase and kinase panel (whole); type: biochemical; conditions: 10 μM compound
[4] = biological target: T2, DRAK1(h) (Homo sapiens, UniProt Q9UEE5); test: Kinase screen; type: biochemical; conditions: 0.1% DMSO control = 100%
T2 construct: purchased Millipore (KinaseProfiler service)

[5] = tested on: canonical Wnt signaling activated by β-catenin constructs; test: ST-Luc reporter in HEK293 cells co-transfected with β-catenin variants; conditions: 10 or 25 μM, 24 h
Description: These included full-length β-catenin, β-catenin with point mutations at N-terminal phosphorylation sites (dominant active, da-Cat), N-terminal deletion of β-catenin (ΔN-Cat) as another dominant active form, and β-catenin C-terminal transactivation domain fused to LEF-1 (CLEF) functioning as dominant active LEF-1. Plasmid amounts used for transfections were diminished to nanograms per 48-well plate to obtain a pathway induction in the range of 10-20 fold.
Transfection was performed as described in Example 22, but using β-catenin variants co-transfected in the following plasmid combinations:
1) 0.215 μg SuperTOPFlash+0.02 μg Renilla+0.015 μg β-catenin;
2) 0.23 μg SuperTOPFlash+0.02 μg Renilla+0.2 ng da-Cat (dominant active β-catenin (S33, 37, 41 and 45A mutated);
3) 0.23 μg SuperTOPFlash+0.02 μg Renilla+0.2 ng ΔN-Cat (N-terminal deleted β-catenin; and
4) 0.23 μg SuperTOPFlash+0.02 μg Renilla+0.2 ng CLEF (β-catenin transactivation domain fused to LEF-1).

[6] = biological target: T3, KDR(h) (Homo sapiens, UniProt P35968); test: Kinase screen; type: biochemical; conditions: 0.1% DMSO control = 100%
T3 construct: purchased Millipore (KinaseProfiler service)

[7] = biological target: T4, PKA(h) (Homo sapiens, UniProt P17612); test: Kinase screen; type: biochemical; conditions: 0.1% DMSO control = 100%
T4 construct: purchased Millipore (KinaseProfiler service)

[8] = biological target: T5, PTPb(h) (Homo sapiens, UniProt P23467); test: Phosphatase screen; type: biochemical; conditions: 0.1% DMSO control = 100%
T5 construct: purchased Millipore (KinaseProfiler service)

[9] = biological target: T6, IKKα(h) (Homo sapiens, UniProt O15111); test: Kinase screen; type: biochemical; conditions: 0.1% DMSO control = 100%
T6 construct: purchased Millipore (KinaseProfiler service)

[10] = tested on: Apc^Min mice; test: Tumour growth in Apc^Min mice; type: in vivo
Description: Cages containing three C57BL/6 females were crossed with one C57BL/6J-Apc^Min male. The mice were fed with 2018SX Teklad Global 18% Protein Extruded Rodent Diet (Harlan™). 5-7 day old pups were randomized and divided into two treatment groups; the test group was treated with compound (1) and the control group treated with control vehicle (1% Tween®80—Sigma). Test solutions were administered daily by subcutaneous injection into the back of the neck (10 μl solution per gram of animal weight, solution 15 mg/ml compound). Two day injection intermissions followed after every fifth injection day. At the age of 21 days, mice were genotyped and Apc^Min animals were sorted into a males and females. At the same time, subcutaneous injection of the solutions was substituted by oral administration. For oral application, compound (1) was dissolved in DMSO to […]. DMSO alone was used as a vehicle control (5 μl solution per gram of animal weight, solution 30 mg/ml). Administration was terminated at the age of 9 weeks and animals euthanased. The small intestine and colon of each animal was dissected, fixed in 10% PFA and stained with 1% methylene blue. Intestines were divided into anonymous and coded samples before manual analysis by microscopy. The frequency, distribution and size of the tumors were quantified. The mice were weighted twice a week throughout the experiment. All animal experiments were approved by local ethics authorities at Forsøksdyrutvalget, Oslo, Norway, and were carried out following accepted ethical standards. […] For each statistical comparison, a Shapiro-Wilk normality test was performed along with a Students t-test if passed (P>0.05). When normality could not be achieved in the Shapiro-Wilk test, a Mann-Whitney rank sum test was used instead of Students t-test. The α-level was set to 0.05 and a difference with P<0.05 was considered to be statistically significant. Sample size (n), median, range, maximum, minimum, mean, standard deviation, standard error, and confidence intervals (C.I. of mean) are listed.

[11] = biological target: T7, TCPTP(h) (Homo sapiens, UniProt P17706); test: Phosphatase screen; type: biochemical; conditions: 0.1% DMSO control = 100%
T7 construct: purchased Millipore (KinaseProfiler service)

[12] = biological target: T8, Fyn(h) (Homo sapiens, UniProt P06241); test: Kinase screen; type: biochemical; conditions: 0.1% DMSO control = 100%
T8 construct: purchased Millipore (KinaseProfiler service)

[13] = biological target: T9, SRPK1(h) (Homo sapiens, UniProt Q96SB4); test: Kinase screen; type: biochemical; conditions: 0.1% DMSO control = 100%
T9 construct: purchased Millipore (KinaseProfiler Service)

[14] = tested on: Xenopus embryos; test: Xenopus laevis axis duplication assay (XWnt8 mRNA); type: in vivo; conditions: 0.4 pmol injected, scored after 36 h; compared to DMSO controls
Description: Injection of ectopic XWnt8 mRNA into the prospective ventral side activates canonical Wnt pathway signaling and induces a secondary body axis. This assay provides a reliable method to test biological effects of compounds with potential effects on Wnt signaling. […] The embryos were incubated at 19° C. and axis duplication was scored after 36 hours.

[15] = biological target: T10, c-RAF(h) (Homo sapiens, UniProt P04049); test: Kinase screen; type: biochemical; conditions: 0.1% DMSO control = 100%
T10 construct: purchased Millipore (KinaseProfiler service)

[16] = biological target: T11, Mnk2(h) (Homo sapiens, UniProt Q9HBH9); test: Kinase screen; type: biochemical; conditions: 0.1% DMSO control = 100%
T11 construct: purchased Millipore (KinaseProfiler service)

[17] = biological target: T12, PI3 Kinase (p110b/p85a)(h) (Homo sapiens, UniProt P42338); test: Kinase screen; type: biochemical; conditions: 0.1% DMSO control = 100%
T12 construct: purchased Millipore (KinaseProfiler service)

[18] = Test female, s.c. then oral 150 mg/kg, to age 9 weeks
[19] = Test male, s.c. then oral 150 mg/kg, to age 9 weeks

T2 sequence (Q9UEE5 whole entry): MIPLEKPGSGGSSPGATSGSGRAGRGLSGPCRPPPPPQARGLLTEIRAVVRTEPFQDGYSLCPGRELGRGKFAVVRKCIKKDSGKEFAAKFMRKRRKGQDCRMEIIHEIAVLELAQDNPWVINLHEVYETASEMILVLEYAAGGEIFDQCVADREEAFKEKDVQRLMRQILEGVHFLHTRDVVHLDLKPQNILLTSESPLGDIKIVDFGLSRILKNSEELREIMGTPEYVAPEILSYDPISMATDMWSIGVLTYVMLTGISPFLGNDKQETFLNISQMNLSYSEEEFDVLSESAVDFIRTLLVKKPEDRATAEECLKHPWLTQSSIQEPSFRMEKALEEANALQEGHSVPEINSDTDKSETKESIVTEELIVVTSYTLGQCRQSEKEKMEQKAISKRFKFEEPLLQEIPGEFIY
T10 sequence (P04049 whole entry): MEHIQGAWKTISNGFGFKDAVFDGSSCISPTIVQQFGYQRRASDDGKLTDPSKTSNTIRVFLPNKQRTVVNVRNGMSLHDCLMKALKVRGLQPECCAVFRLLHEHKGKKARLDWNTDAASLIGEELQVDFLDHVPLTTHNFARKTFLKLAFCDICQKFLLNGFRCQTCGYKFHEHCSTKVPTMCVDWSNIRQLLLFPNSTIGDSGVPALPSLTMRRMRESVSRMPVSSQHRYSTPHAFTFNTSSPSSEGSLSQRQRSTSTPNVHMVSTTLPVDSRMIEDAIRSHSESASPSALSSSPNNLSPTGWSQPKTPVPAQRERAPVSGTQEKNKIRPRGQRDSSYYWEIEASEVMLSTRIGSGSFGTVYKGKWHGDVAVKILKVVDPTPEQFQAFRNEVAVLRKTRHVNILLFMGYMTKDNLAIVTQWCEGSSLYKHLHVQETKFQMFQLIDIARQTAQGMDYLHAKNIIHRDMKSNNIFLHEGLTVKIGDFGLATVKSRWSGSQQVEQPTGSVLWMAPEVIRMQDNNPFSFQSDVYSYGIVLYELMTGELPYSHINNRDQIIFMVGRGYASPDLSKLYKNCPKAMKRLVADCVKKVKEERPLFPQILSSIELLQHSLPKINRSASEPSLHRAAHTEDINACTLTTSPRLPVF
T1 sequence (P08069 31-1367): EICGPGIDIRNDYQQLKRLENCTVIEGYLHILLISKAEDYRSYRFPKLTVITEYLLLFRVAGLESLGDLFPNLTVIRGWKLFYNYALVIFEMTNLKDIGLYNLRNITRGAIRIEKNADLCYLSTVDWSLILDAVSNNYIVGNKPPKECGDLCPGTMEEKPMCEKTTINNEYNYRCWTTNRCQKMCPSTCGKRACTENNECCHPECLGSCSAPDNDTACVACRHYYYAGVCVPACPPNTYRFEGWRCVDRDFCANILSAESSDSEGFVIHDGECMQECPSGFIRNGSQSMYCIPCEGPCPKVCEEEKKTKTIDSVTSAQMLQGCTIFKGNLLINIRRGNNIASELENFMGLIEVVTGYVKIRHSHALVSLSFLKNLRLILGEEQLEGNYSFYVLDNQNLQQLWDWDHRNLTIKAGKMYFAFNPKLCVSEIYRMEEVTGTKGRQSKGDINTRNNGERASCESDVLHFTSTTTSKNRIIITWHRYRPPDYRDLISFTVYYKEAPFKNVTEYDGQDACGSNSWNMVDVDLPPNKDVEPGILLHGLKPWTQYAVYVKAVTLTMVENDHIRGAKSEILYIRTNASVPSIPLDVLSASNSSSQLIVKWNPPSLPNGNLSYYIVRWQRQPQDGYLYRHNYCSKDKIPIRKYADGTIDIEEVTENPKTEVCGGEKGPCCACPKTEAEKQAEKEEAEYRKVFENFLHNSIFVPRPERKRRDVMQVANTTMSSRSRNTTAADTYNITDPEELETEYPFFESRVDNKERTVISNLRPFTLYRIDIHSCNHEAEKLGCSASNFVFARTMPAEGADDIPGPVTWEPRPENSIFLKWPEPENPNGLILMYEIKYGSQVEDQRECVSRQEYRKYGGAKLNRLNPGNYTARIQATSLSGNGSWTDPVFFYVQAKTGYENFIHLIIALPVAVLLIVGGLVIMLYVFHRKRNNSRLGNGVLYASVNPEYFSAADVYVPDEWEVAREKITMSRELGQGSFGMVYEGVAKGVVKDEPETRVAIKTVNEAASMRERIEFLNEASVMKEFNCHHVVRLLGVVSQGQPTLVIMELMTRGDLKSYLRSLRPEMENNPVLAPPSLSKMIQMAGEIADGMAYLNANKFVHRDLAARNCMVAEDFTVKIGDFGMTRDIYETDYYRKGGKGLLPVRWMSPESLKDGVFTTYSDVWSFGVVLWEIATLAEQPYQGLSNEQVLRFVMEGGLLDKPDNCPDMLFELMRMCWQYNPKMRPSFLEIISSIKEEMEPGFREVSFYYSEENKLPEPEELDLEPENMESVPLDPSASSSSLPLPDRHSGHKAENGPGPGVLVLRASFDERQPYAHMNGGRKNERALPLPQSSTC
T3 sequence (P35968 20-1356): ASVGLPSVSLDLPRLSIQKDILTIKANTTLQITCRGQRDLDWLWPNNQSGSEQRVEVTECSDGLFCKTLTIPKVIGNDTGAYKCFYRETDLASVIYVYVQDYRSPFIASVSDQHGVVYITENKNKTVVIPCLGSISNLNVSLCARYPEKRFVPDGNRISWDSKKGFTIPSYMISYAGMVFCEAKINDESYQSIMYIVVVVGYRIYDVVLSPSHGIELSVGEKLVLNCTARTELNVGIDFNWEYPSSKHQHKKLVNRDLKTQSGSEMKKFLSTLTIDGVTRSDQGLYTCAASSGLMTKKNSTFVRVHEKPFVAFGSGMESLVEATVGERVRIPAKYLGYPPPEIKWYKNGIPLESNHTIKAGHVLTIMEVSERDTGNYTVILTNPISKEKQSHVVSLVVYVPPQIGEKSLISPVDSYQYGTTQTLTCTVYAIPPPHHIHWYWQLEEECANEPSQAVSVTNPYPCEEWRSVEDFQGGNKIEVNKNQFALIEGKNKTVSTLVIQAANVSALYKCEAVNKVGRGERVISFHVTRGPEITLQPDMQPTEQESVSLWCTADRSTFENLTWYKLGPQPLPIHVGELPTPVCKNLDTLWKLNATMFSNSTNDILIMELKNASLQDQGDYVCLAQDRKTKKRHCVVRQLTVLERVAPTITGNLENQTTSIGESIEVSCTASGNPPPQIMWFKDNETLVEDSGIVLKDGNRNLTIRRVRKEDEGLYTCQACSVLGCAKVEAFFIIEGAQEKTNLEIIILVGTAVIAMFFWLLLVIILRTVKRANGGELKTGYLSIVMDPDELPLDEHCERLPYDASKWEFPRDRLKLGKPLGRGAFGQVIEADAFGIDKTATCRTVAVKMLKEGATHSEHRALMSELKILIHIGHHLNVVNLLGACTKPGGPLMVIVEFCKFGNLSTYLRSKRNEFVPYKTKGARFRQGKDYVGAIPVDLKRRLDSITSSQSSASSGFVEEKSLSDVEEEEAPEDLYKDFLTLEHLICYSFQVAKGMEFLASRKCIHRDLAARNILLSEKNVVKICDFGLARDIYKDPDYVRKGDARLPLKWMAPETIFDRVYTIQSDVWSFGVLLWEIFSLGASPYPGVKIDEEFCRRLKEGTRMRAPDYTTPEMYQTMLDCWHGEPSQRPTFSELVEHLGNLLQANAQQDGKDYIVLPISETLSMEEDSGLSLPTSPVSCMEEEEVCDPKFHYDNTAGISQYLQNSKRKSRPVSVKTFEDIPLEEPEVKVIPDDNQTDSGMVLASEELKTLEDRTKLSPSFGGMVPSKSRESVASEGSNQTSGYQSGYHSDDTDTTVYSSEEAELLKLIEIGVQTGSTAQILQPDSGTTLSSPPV
T9 sequence (Q96SB4 whole entry): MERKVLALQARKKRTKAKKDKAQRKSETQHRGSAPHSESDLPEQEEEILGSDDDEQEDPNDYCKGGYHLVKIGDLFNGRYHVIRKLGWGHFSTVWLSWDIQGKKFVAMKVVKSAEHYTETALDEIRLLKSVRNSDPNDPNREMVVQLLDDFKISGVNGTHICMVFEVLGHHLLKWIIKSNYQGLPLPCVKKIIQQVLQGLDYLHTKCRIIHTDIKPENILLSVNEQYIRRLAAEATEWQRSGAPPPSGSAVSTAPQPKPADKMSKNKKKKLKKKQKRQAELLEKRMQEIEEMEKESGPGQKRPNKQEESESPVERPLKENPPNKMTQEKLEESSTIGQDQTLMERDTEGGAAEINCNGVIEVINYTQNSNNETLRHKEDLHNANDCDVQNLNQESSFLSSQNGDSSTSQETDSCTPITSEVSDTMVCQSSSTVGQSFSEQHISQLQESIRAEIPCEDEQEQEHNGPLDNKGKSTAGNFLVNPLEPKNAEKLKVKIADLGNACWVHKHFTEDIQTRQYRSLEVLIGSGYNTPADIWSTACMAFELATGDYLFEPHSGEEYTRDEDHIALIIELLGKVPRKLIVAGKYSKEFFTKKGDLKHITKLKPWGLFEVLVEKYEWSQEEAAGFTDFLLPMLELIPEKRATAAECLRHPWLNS
T7 sequence (P17706 whole entry): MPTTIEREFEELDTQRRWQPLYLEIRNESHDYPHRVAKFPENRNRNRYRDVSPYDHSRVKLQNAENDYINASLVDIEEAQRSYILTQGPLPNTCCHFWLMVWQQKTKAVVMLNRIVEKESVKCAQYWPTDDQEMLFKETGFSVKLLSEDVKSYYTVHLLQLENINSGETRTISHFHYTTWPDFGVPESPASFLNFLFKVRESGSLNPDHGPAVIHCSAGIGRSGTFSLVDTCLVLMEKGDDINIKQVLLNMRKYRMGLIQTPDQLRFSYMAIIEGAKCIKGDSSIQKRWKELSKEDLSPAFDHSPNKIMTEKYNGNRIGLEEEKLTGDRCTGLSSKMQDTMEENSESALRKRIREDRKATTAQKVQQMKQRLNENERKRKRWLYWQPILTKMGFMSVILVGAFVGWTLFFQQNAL

## COc1ccc(-n2c(SCc3nc(-c4ccc(C)cc4)no3)nnc2-c2ccncc2)cc1 [Compound 1]
[1]
  activity at 10 µM: 149%
[2]; plasma, 150 mg/kg, 150 mg/kg group, read-out: concentration in plasma
  concentration at 24 h after the last injection: 1300 ng/mL
[2]; plasma, 300 mg/kg, 300 mg/kg group, read-out: concentration in plasma
  concentration at 24 h after the last injection: 1300 ng/mL
[2]; tumor, 150 mg/kg, 150 mg/kg cohort, read-out: concentration in tumors, mean
  concentration at 24 h after the last injection: 11800 ng/g
[2]; tumor, 150 mg/kg, 150 mg/kg cohort, read-out: concentration in tumors, range
  concentration at 24 h after the last injection: 1900 to 32900 ng/g
[2]; tumor, 300 mg/kg, 300 mg/kg cohort, read-out: concentration in tumors, mean
  concentration at 24 h after the last injection: 2400 ng/g
[2]; tumor, 300 mg/kg, 300 mg/kg cohort, read-out: concentration in tumors, range
  concentration at 24 h after the last injection: 900 to 4900 ng/g
[3]
  inhibition of kinase or phosphatase activity: No extensive inhibition
[4]
  activity at 10 µM: 116%
[5]
  activation of canonical Wnt signaling by full-length β-catenin: reduced
  activation of the pathway by CLEF: not significantly antagonized
  activation of the pathway by da-Cat: not significantly antagonized
  activation of the pathway by ΔN-Cat: not significantly antagonized
[6]
  activity at 10 µM: 104%
[7]
  activity at 10 µM: 86%
[8]
  activity at 10 µM: 106%
[9]
  activity at 10 µM: 109%
[10]; Test (male + female), control max 6
  number of colon tumours, Max: 2
[10]; Test (male + female), control max 295
  number of small intestine tumours, Max: 53
[10]; Test (male + female), control mean 1.783, P=0.003
  number of colon tumours, Mean: 0.42 and 0.429
[10]; Test (male + female), control mean 74.8, P=0.036
  number of small intestine tumours, Mean: 36.1
[10]; Test (male + female), control median 1
  number of colon tumours, Median: 0
[10]; Test (male + female), control median 45
  number of small intestine tumours, Median: 35
[10]; Test (male + female), control min 0
  number of colon tumours, Min: 0
[10]; Test (male + female), control min 25
  number of small intestine tumours, Min: 19
[10]; [18]
  number of small intestine tumours, Max: 51
  number of small intestine tumours, Mean: 33.5
  number of small intestine tumours, Median: 33
  number of small intestine tumours, Min: 19
[10]; [19]
  number of small intestine tumours, Max: 53
  number of small intestine tumours, Mean: 39.1
  number of small intestine tumours, Median: 37
  number of small intestine tumours, Min: 22
[10]; after the treatments, versus vehicle group
  difference in the bodyweight of male or female mice: No substantial difference
[10]; compared to control
  tumour frequencies among size classes between 0.10 mm^2 and 3.20 mm^2, small intestine: drastically reduced
  tumours in the last two-thirds of the small intestine: substantially fewer tumours
[10]; control 38.1 mm^2/subject
  total tumor load in the small intestine (sum of all tumors in mm^2/n): 16.4 mm^2/subject
[11]
  activity at 10 µM: 100%
[12]
  activity at 10 µM: 83%
[13]
  activity at 10 µM: 96%
[14]
  reduction in double axis formation: 87%
[15]
  activity at 10 µM: 98%
[16]
  activity at 10 µM: 108%
[17]
  activity at 10 µM: 94%
